In paper PMC12505902, “Inhibitors of trehalose-6-phosphate synthase activity in fungal pathogens compromise thermal tolerance pathways” (mBio, 2025) one finds MIC80 data, which are given here for one compound.

The test system of this assay is C. glabrata (CBS138). Nature of the assay: MIC dose-response assay in YPD. Type of assay: cell-based. The protocol: Fig 4 4456dh inhibits the growth of Candida and Cryptococcus species. […] 4456dh was administered at the concentrations indicated. Cultures were grown in YPD at the listed temperatures for 48 hours for Candida species and 72 hours for Cryptococcus species. Experimental temperatures reflect the temperatures at which the fungi experience heat stress. Left: relative growth of treated samples was calculated by averaging technical triplicates and normalizing the OD600 of each treated well to the average OD600 of the untreated WT controls, after the absorbance due to the compound was subtracted. The MIC80 values, calculated based on the OD600 values, are indicated in the white text on each heat map. Right: representative spot assays show the ability of cells to grow after exposure to 4456dh and indicate fungicidal activity of 4456dh. […]
Furthermore, there was significant fungicidal activity of 4456dh on C. glabrata in concentrations starting at approximately 7.8 µM (Fig. 4B).
77 and 5 mM imidazole. The protein was eluted with increasing amounts of imidazole in the wash
78 buffer. The fractions containing 6xHis-CnTps1 were pooled, reduced to 5 mL and purified further
79 using S200 size exclusion column chromatography (HiLoad 26/600 Superdex 200pg, Cytiva) […]
82 determined by SDS-PAGE analysis, were pooled and concentrated to 1 mg/mL for downstream […]
93 The data were acquired with MO.Control 1.5.3 (NanoTemper Technologies GmbH). Recorded
94 data were analyzed with MO.Affinity Analysis 2.2.7 (NanoTemper Technologies GmbH). […]
100 2X Glo-melt dye. Thermal denaturation was measured using an RT-PCR thermocycler (BioRad) […]
102 determined by identifying the inflection point of the derivative data. […]
104 The catalytic activity of C. albicans Tps1 and C. neoformans Tps1 was measured via a continuous […]
110 bottomed 96-well microtiter plates and the decrease in absorbance at 340 nm during the initial
111 reaction rate was recorded using a plate reader (Tecan). The decrease in absorbance was
112 analyzed for the first 200s of the kinetic reaction. […]

Each structure is given as a SMILES string. Where two headings read alike, the source gives them in different places.

With `Cn1cc(-c2csc(NC(=O)Cc3ccccn3)n2)cn1` [Compound 4456dh], the MIC80 (commonly the lowest concentration that inhibits either 80% of growth or 80% of the strains tested, depending on the study) (30°C, YPD) was “no MIC or fungicidal activity was detected”; the MIC80 (Nakaseomyces glabratus, CBS138, 42°C, YPD, 48 hours, read-out: MIC80) amounted to 7.8 µM; the MIC80 (Nakaseomyces glabratus, CBS138, Supplemental Table 5, This publication, read-out: MIC80) came to 3.1 mg/L.
